{"source": "patent US20230142274A1", "about": "(SIMCERE PHARMACEUTICAL CO., LTD., priority 2020, published 2023)"}
{"system": "Daudi cells", "test": "Inhibition of human Daudi lymphoma cell proliferation (Cell-Titer Glo)", "type": "cell-based", "conditions": "Homo sapiens, 72 h, 3 days incubation, read-out: Anti-Proliferative Activity Against Daudi cells IC50", "protocol": "Introduction of the experimental principle: After the RAD51 inhibitor to be tested was co-incubated with cancer cells for a period of time, the influence of the test compound on cell proliferation was measured by a method for counting cell proliferation based on the quantitative measurement of intracellular ATP content.\nMaterials and Cells: Daudi cells were purchased from ATCC; fetal bovine serum, 1640 medium and penicillin-streptomycin were purchased from Gibco Inc. (U.S.), 96-well plates were purchased from Corning Inc. (U.S.), and Cell-Titer Glo reagent was purchased from Promega Corporation (U.S.).\nCell culture: Daudi cells were cultured in 1640 culture medium containing 10% fetal bovine serum and 1% penicillin-streptomycin at 37° C. in an atmosphere containing 5% CO2. Cells in logarithmic growth phase could be used for experiments.\nAssay of cell proliferation and viability: Cell-Titer Glo reagent was used to measure the inhibitory activities of the compounds on the proliferation of Daudi cell strain. The concentration of cells was adjusted, and the cells were seeded in a 96-well plate and cultured at 37° C. in an atmosphere containing 5% CO2 for 24 hours. The powder of the compound was dissolved in 100% DMSO to form a 10 mM solution. 10 μl of the solution of the compound was aspirated and transferred into a 96-well compound plate containing 20 μl of DMSO solution for 3-fold dilution and was then formulated into 10 serial dilutions. Thereafter, 2 μl of the solution of the compound was aspirated from the corresponding well and added correspondingly into a 96-well intermediate compound dilution plate containing 78 μl of complete culture medium in each well. The resultant was mixed well, and the plate was centrifuged at 1000 rpm for 1 minute. Finally, 10 μl of the solution of the compound was aspirated from the corresponding well of the 96-well intermediate compound dilution plate, and transferred into the corresponding well of the cell culture plate containing 90 μl of complete culture medium. The final concentration of DMSO was 0.25%. After the addition of the compound, the cells were continued to be incubated for 3 days at 37° C. in an atmosphere containing 5% CO2. Cell-Titer Glo reagent was added to measure cell viability.\n% Compound inhibition was calculated and IC50 of the compound was filled;\n% Compound inhibition=1−100%×(Signal−Bottom)/(Top−Bottom)", "units": {"IC50": "nM"}}
{"compound": "CC(C)OC(=O)N[C@H]1CC[C@H](c2ncc(-c3ccc(Nc4cccnc4)cc3S(=O)(=O)C3CC3)s2)CC1", "note": "[Example 76, isopropyl trans-N-[4-[5-[2-cyclopropylsulfonyl-4-(3-pyridylamino)phenyl]thiazol-2-yl]cyclohexyl]carbamate]", "IC50": 9}
{"compound": "Cc1ccc(Nc2ccc(-c3cnc(C4CCC(NC(=O)OC(C)C)CC4)s3)c(S(=O)(=O)C3CC3)c2)nc1", "note": "(stereo not drawn) [Example 77, isopropyl trans-(4-(5-(2-(cyclopropylsulfonyl)-4-((5-methylpyridin-2-ylamino)phenyl)thiazol-2-yl)cyclohexyl)carbamate]", "IC50": 4}
{"compound": "COc1ccc(Nc2ccc(-c3cnc([C@H]4CC[C@H](NC(=O)OC(C)C)CC4)s3)c(S(=O)(=O)C3CC3)c2)nc1", "note": "[Example 78, isopropyl trans-(4-(5-(2-(cyclopropylsulfonyl)-4-((5-methoxypyridin-2-yl)amino)phenyl)thiazol-2-yl)cyclohexyl)carbamate]", "IC50": 4}
{"compound": "CC(C)OC(=O)N[C@H]1CC[C@H](c2ncc(-c3ccc(Nc4ncccn4)cc3S(=O)(=O)C3CC3)s2)CC1", "note": "[Example 79, isopropyl trans-(4-(5-(2-(cyclopropylsulfonyl)-4-(pyrimidin-2-ylamino)phenyl)thiazol-2-yl)cyclohexyl)carbamate]", "IC50": 51}
{"compound": "CC(C)OC(=O)NC1CCC(c2ncc(-c3ccc(Nc4ncncn4)cc3S(=O)(=O)C3CC3)s2)CC1", "note": "(stereo not drawn) [Example 80, isopropyl trans-N-[4-[5-[2-cyclopropylsulfonyl]-4-(1,3,5-triazin-2-ylamino)phenyl]thiazol-2-yl]cyclohexyl]carbamate]", "IC50": 330}
{"compound": "CC(C)OC(=O)N[C@H]1CC[C@H](c2ncc(-c3ccc(Nc4ccc(C(F)(F)F)cn4)cc3S(=N)(=O)C3CC3)s2)CC1", "note": "(some centres unmarked) [Example 82]", "IC50": 250}
{"compound": "CC(C)OC(=O)N[C@H]1CC[C@H](c2ncc(-c3ccc(Oc4ccccn4)cc3S(=O)(=O)C3CC3)s2)CC1", "note": "[Example 83, isopropyl trans-(4-(5-(2-(cyclopropylsulfonyl)-4-(pyridin-2-yloxy)phenyl)thiazol-2-yl)cyclohexyl)carbamate]", "IC50": 200}
{"compound": "CC(C)OC(=O)N[C@H]1CC[C@H](c2ncc(-c3ccc(-n4cccn4)cc3S(=O)(=O)C3CC3)s2)CC1", "note": "[Example 87, isopropyl trans-N-[4-[5-(2-cyclopropylsulfonyl-4-pyrazol-1-yl-phenyl)thiazol-2-yl]cyclohexyl]carbamate]", "IC50": 290}
{"compound": "Cc1cc(Nc2ccc(-c3ccc([C@H]4CC[C@H](NC(=O)OC(C)C)CC4)s3)c(S(=O)(=O)C3CC3)c2)n[nH]1", "note": "[Example 89, isopropyl trans-(4-(5-(2-(cyclopropylsulfonyl)-4-((5-methyl-1H-pyrazol-3-yl)amino)phenyl)thiophen-2-yl)cyclohexyl)carbamate]", "IC50": 7}
{"compound": "Cc1cc(Nc2ccc(-c3ccc([C@H]4CC[C@@H](NC(=O)OC(C)C)CC4)s3)c(S(=O)(=O)C3CC3)c2)n[nH]1", "note": "[Example 89-1, isopropyl cis-(4-(5-(2-(cyclopropylsulfonyl)-4-((5-methyl-1H-pyrazol-3-yl)amino)phenyl)thiophen-2-yl)cyclohexyl)carbamate]", "IC50": 127}
{"compound": "Cc1cc(Nc2ccc(-c3cnc([C@H]4CC[C@H](NC(=O)OC(C)C)CC4)[nH]3)c(S(=O)(=O)C3CC3)c2)n[nH]1", "note": "[Example 90]", "IC50": 8800}
{"compound": "Cc1cc(Nc2ccc(-c3ncc([C@H]4CC[C@H](NC(=O)OC(C)C)CC4)s3)c(S(=O)(=O)C3CC3)c2)n[nH]1", "note": "[Example 91, isopropyl trans-(4-(2-(2-(cyclopropylsulfonyl)-4-((5-methyl-1H-pyrazol-3-yl)amino)phenyl)thiazol-5-yl)cyclohexyl)carbamate]", "IC50": 1500}
{"compound": "Cc1cc(Nc2ccc(-c3ncc([C@H]4CC[C@@H](NC(=O)OC(C)C)CC4)s3)c(S(=O)(=O)C3CC3)c2)n[nH]1", "note": "[Example 91-1, isopropyl cis-(4-(2-(2-(cyclopropylsulfonyl)-4-((5-methyl-1H-pyrazol-3-yl)amino)phenyl)thiazol-5-yl)cyclohexyl)carbamate]", "IC50": 60}
{"compound": "COc1ccc(Nc2ccc(-c3cnc([C@H]4CC[C@H](NC(=O)OC(C)C)CC4)s3)c(S(=O)(=O)C3CC3)c2)cn1", "note": "[Example 93, isopropyl trans-(4-(5-(2-(cyclopropylsulfonyl)-4-((6-methoxypyridin-3-yl)amino)phenyl)thiazol-2-yl)cyclohexyl)carbamate]", "IC50": 10}
{"compound": "CC(C)OC(=O)N[C@H]1CC[C@H](c2ncc(-c3ccc(Nc4ccc(=O)[nH]c4)cc3S(=N)(=O)C3CC3)s2)CC1", "note": "(stereo partly drawn) [Example 95, isopropyl trans-(4-(5-(2-(cyclopropanesulfonimidoyl)-4-((6-oxo-1,6-dihydropyridin-3-yl)amino)phenyl)thiazol-2-yl)cyclohexyl)carbamate]", "IC50": 132}
{"compound": "CC(C)OC(=O)N[C@H]1CC[C@H](c2ncc(-c3ccc(Nc4ccc(=O)[nH]c4)cc3S(=O)(=O)C3CC3)s2)CC1", "note": "[Example 96, isopropyl trans-(4-(5-(2-(cyclopropylsulfonyl)-4-((6-oxo-1,6-dihydropyridin-3-yl)amino)phenyl)thiazol-2-yl)cyclohexyl)carbamate]", "IC50": 140}
{"compound": "CN=S(=O)(c1cc(Nc2cc(C)[nH]n2)ccc1-c1cnc([C@H]2CC[C@H](NC(=O)OC(C)C)CC2)s1)C1CC1", "note": "(stereo partly drawn) [Example 97, isopropyl trans-(4-(5-(4-((5-methyl-1H-pyrazol-3-yl)amino)-2-(N-methylcyclopropanesulfonimidoyl)phenyl)thiazol-2-yl)cyclohexyl)carbamate]", "IC50": 290}
{"compound": "CC(C)OC(=O)N[C@H]1CC[C@H](c2ncc(-c3ccc(Nc4ncco4)cc3S(=N)(=O)C3CC3)s2)CC1", "note": "(stereo partly drawn) [Example 99, isopropyl trans-(4-(5-(2-(cyclopropanesulfonimidoyl)-4-(oxazol-2-ylamino)phenyl)thiazol-2-yl)cyclohexyl)carbamate]", "IC50": 36}
{"compound": "CC(C)OC(=O)N[C@H]1CC[C@H](c2ncc(-c3ccc(Nc4nnco4)cc3S(=N)(=O)C3CC3)s2)CC1", "note": "(stereo partly drawn) [Example 100, isopropyl trans-(4-(5-(4-((1,3,4-oxadiazol-2-yl)amino)-2-(cyclopropanesulfonimidoyl)phenyl)thiazol-2-yl)cyclohexyl)carbamate]", "IC50": 680}
{"compound": "Cc1cc(Nc2ccc(-c3cnc([C@H]4CC[C@H](NC(=O)OC(C)C)CC4)s3)c(S(=N)(=O)C3COC3)c2)n[nH]1", "note": "(stereo partly drawn) [Example 105, isopropyl trans-N-[4-[5-[4-[(5-methyl-1H-pyrazol-3-yl)amino]-2-(oxetan-3-ylsulfonimidoyl)phenyl]thiazol-2-yl]cyclohexyl]carbamate]", "IC50": 26}
{"compound": "CC(C)OC(=O)N[C@H]1CC[C@H](c2ncc(-c3ccc(Nc4cnn(CCF)c4)cc3S(=N)(=O)C3COC3)s2)CC1", "note": "(stereo partly drawn) [Example 106, isopropyl trans-N-[4-[5-[4-[[1-(2-fluoroethyl)pyrazol-4-yl]amino]-2-(oxetan-3-ylsulfonimidoyl)phenyl]thiazol-2-yl]cyclohexyl]carbamate]", "IC50": 40}
{"compound": "Cc1cc(Nc2ccc(-c3nc4c(s3)CC(NC(=O)OC(C)C)CC4)c(S(=O)(=O)C3CC3)c2)n[nH]1", "note": "(centres unmarked) [Example 107, isopropyl (2-(2-(cyclopropylsulfonyl)-4-((5-methyl-1H-pyrazol-3-yl)amino)phenyl)-4,5,6,7-tetrahydrobenzo[d]thiazol-6-yl)carbamate]", "IC50": 275}
{"compound": "Cc1cc(Nc2ccc(-c3nc4c(s3)CCN(C(=O)OC(C)C)CC4)c(S(=O)(=O)C3CC3)c2)n[nH]1", "note": "[Example 108, isopropyl 2-(2-(cyclopropylsulfonyl)-4-((5-methyl-1H-pyrazol-3-yl)amino)phenyl)-7,8-dihydro-4H-thiazolo[4,5-d]aza-6(5H)-carboxylate]", "IC50": 468}
{"compound": "Cc1cc(Nc2ccc(-c3cnc(N4CC5C(C4)C5NC(=O)OC(C)C)s3)c(S(=O)(=O)C3CC3)c2)n[nH]1", "note": "(centres unmarked) [Example 109, isopropyl (3-(5-(2-(cyclopropylsulfonyl)-4-((5-methyl-1H-pyrazol-3-yl)amino)phenyl)thiazol-2-yl)-3-azabicyclo[3.1.0]hexanone-6-yl)carbamate]", "IC50": 76}
{"compound": "CCNC(=O)c1ccc(-c2cnc([C@H]3CC[C@H](NC(=O)OC(C)C)CC3)s2)c(S(=O)(=O)C2CC2)c1", "note": "[Example 111, isopropyl trans-(4-(5-(2-(cyclopropylsulfonyl)-4-(ethylcarbamoyl)phenyl)thiazol-2-yl)cyclohexyl)carbamate]", "IC50": 700}
{"compound": "CC(C)OC(=O)N[C@H]1CC[C@H](c2ncc(-c3ccc(Nc4ccc(F)cn4)cc3S(=O)(=O)C3COC3)s2)CC1", "note": "[Example 112, isopropyl trans-N-[4-[5-[4-[(5-fluoro-2-pyridyl)amino]-2-(oxetan-3-ylsulfonyl)phenyl]thiazol-2-yl]cyclohexyl]carbamate]", "IC50": 17}
